Reference: ChEMBL document CHEMBL1201862, “PubChem BioAssay data set” (2004)
Blank lines part the entries; values can stand above or below the compound they belong to. Activity calls are given as the source filed them.

Assays:
[1] = molecular target: Dual specificity tyrosine-phosphorylation-regulated kinase 1A (Rattus norvegicus, UniProt Q63470); assay type: biochemical, Homo sapiens
[2] = molecular target: T1, RNA-binding protein pos-1 (Caenorhabditis elegans, UniProt G5EF15); experiment: disruptors of C. elegans POS-1 RNA interaction – biochemical, fluorescence polarization, dose response (AID 1964);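 also: purified POS-1 fused to maltose binding protein made in E. coli; potency of compounds blocking POS-1 binding to fluorescent RNA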
T1 sequence (G5EF15 whole entry): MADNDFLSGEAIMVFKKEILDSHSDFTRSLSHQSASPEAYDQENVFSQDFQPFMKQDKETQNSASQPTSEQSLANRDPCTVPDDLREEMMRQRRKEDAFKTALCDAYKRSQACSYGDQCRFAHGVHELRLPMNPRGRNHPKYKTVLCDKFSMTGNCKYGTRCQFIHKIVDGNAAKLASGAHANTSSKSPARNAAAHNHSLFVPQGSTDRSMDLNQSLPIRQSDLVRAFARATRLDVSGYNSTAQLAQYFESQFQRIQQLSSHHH

[3] = molecular target: T2, Zinc finger protein mex-5 (Caenorhabditis elegans, UniProt Q9XUB2); experiment: potency of MEX-5 RNA-binding blockers – biochemical, C. elegans, fluorescence polarization, dose response (AID 1960)
T2 sequence (Q9XUB2 whole entry): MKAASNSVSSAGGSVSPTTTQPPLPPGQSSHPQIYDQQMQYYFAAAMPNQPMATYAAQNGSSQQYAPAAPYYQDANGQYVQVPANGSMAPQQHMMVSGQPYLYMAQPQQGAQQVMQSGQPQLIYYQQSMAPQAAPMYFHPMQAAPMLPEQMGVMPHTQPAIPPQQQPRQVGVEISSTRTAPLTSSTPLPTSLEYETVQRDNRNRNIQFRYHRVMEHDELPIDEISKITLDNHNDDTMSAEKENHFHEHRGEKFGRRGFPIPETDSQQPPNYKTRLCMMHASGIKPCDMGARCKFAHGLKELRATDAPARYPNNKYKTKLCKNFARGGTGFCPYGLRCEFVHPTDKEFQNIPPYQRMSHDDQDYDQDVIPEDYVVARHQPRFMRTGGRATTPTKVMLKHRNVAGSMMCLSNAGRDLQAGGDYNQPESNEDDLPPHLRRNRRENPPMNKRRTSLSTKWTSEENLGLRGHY

[4] = molecular target: Glucose-6-phosphate 1-dehydrogenase (Homo sapiens, UniProt P11413); experiment: inhibition of Homo sapiens G6PD, dose series – biochemical, fluorescence, selectivity assay for P. falciparum G6PD inhibitor project, dose response (AID 504792); assay type: functional
Sequence of Glucose-6-phosphate 1-dehydrogenase (P11413 whole entry): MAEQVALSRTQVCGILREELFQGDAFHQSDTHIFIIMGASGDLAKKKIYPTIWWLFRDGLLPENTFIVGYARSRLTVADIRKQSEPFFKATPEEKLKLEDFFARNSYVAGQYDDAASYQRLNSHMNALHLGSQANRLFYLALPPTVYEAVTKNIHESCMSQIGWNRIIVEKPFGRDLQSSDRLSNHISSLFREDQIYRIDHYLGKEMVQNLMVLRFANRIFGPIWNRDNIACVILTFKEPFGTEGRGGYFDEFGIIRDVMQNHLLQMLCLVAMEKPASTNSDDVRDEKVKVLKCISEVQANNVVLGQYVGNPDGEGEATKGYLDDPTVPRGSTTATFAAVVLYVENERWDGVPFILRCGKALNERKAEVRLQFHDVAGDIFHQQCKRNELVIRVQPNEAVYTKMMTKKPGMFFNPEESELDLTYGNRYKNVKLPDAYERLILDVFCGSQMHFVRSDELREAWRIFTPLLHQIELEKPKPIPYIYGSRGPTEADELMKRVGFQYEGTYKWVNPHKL

[5] = tested on: INS1; experiment: INS-1E survival protection against cytokine death – cell-based, luminescence, retest, dose response (AID 449756); assay type: functional; details: Rattus norvegicus, INS1;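 also: cell death triggered by IL-1 beta plus TNF-alpha plus IFN-gamma mixture; protective hits raise ATP signal compared with cytokine alone wells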
[6] = molecular target: Large T antigen (Simian virus 40, UniProt P03070); assay type: functional, Betapolyomavirus macacae;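 also: Confirmatory-stage PubChem screen for compounds that inhibit SV40 T antigen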
Sequence of Large T antigen (P03070 whole entry): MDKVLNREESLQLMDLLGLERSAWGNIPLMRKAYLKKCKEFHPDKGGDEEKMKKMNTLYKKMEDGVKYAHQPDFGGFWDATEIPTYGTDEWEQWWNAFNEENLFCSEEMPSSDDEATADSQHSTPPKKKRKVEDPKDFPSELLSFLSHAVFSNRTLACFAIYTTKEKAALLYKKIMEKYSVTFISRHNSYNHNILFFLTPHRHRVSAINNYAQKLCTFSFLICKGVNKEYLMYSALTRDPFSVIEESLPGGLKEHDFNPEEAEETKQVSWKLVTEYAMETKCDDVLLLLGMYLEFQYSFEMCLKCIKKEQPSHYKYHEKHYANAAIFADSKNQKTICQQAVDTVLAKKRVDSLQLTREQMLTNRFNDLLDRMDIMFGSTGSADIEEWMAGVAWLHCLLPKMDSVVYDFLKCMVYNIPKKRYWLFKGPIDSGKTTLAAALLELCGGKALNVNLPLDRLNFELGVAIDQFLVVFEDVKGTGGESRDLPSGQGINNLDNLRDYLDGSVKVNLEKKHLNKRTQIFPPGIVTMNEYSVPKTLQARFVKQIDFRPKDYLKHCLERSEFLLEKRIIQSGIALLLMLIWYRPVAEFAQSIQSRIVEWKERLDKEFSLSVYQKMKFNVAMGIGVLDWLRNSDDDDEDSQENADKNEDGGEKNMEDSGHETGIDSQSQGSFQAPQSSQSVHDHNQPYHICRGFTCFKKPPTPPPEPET

[7] = molecular target: T3, Mannose-6-phosphate isomerase (Homo sapiens, UniProt P34949); experiment: MPI inhibition at elevated mannose 6-phosphate – biochemical, fluorescence intensity, high mannose 6-phosphate, primary screen (AID 1220)
T3 sequence (P34949 whole entry): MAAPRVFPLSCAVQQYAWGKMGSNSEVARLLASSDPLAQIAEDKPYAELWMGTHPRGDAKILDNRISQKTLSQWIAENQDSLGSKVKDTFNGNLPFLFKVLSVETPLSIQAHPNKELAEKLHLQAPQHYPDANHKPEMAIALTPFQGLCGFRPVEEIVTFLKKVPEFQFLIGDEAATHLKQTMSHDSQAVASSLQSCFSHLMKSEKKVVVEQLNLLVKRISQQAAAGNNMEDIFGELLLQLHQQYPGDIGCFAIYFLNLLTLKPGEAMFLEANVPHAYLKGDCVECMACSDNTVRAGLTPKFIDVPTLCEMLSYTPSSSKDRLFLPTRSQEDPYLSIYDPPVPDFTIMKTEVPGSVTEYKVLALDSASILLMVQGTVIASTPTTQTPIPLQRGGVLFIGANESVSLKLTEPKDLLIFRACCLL

[8] = molecular target: Genome polyprotein (dengue virus type 2, UniProt P29990); experiment: flavivirus cap methylation enzyme inhibition – biochemical, confirmation dose response, primary screen (AID 588689); assay type: functional
[9] = molecular target: T4, Rac GTPase-activating protein 1 (Homo sapiens, UniProt Q9H0H5); experiment: blockers of MgcRacGAP-driven Rac1 GTP hydrolysis – biochemical, ADP Hunter fluorescence, primary and confirmatory, confirmation (AID 624330); assay type: functional
T4 sequence (Q9H0H5 whole entry): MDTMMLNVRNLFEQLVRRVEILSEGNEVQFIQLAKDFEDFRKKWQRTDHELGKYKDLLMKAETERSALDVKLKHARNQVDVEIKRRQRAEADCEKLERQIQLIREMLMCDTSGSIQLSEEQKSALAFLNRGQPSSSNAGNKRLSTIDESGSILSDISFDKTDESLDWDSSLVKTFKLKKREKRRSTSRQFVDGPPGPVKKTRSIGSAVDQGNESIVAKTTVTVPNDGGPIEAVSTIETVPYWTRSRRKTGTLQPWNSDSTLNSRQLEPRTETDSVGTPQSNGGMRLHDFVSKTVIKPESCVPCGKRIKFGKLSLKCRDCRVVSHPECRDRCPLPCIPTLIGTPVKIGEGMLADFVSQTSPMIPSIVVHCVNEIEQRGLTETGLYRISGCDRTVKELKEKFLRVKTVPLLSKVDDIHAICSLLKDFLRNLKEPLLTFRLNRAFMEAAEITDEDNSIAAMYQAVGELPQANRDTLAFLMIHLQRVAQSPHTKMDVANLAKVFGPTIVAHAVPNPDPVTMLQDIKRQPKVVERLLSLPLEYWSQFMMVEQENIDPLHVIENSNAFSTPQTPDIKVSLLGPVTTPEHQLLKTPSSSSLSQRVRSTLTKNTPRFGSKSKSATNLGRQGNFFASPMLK

[10] = molecular target: T5, Voltage-gated N-type calcium channel alpha-1B subunit/Amyloid beta A4 precursor protein-binding family A member 1 (Homo sapiens, UniProt Q00975+Q02410); assay type: protein assay
T5 sequence (Q00975 whole entry): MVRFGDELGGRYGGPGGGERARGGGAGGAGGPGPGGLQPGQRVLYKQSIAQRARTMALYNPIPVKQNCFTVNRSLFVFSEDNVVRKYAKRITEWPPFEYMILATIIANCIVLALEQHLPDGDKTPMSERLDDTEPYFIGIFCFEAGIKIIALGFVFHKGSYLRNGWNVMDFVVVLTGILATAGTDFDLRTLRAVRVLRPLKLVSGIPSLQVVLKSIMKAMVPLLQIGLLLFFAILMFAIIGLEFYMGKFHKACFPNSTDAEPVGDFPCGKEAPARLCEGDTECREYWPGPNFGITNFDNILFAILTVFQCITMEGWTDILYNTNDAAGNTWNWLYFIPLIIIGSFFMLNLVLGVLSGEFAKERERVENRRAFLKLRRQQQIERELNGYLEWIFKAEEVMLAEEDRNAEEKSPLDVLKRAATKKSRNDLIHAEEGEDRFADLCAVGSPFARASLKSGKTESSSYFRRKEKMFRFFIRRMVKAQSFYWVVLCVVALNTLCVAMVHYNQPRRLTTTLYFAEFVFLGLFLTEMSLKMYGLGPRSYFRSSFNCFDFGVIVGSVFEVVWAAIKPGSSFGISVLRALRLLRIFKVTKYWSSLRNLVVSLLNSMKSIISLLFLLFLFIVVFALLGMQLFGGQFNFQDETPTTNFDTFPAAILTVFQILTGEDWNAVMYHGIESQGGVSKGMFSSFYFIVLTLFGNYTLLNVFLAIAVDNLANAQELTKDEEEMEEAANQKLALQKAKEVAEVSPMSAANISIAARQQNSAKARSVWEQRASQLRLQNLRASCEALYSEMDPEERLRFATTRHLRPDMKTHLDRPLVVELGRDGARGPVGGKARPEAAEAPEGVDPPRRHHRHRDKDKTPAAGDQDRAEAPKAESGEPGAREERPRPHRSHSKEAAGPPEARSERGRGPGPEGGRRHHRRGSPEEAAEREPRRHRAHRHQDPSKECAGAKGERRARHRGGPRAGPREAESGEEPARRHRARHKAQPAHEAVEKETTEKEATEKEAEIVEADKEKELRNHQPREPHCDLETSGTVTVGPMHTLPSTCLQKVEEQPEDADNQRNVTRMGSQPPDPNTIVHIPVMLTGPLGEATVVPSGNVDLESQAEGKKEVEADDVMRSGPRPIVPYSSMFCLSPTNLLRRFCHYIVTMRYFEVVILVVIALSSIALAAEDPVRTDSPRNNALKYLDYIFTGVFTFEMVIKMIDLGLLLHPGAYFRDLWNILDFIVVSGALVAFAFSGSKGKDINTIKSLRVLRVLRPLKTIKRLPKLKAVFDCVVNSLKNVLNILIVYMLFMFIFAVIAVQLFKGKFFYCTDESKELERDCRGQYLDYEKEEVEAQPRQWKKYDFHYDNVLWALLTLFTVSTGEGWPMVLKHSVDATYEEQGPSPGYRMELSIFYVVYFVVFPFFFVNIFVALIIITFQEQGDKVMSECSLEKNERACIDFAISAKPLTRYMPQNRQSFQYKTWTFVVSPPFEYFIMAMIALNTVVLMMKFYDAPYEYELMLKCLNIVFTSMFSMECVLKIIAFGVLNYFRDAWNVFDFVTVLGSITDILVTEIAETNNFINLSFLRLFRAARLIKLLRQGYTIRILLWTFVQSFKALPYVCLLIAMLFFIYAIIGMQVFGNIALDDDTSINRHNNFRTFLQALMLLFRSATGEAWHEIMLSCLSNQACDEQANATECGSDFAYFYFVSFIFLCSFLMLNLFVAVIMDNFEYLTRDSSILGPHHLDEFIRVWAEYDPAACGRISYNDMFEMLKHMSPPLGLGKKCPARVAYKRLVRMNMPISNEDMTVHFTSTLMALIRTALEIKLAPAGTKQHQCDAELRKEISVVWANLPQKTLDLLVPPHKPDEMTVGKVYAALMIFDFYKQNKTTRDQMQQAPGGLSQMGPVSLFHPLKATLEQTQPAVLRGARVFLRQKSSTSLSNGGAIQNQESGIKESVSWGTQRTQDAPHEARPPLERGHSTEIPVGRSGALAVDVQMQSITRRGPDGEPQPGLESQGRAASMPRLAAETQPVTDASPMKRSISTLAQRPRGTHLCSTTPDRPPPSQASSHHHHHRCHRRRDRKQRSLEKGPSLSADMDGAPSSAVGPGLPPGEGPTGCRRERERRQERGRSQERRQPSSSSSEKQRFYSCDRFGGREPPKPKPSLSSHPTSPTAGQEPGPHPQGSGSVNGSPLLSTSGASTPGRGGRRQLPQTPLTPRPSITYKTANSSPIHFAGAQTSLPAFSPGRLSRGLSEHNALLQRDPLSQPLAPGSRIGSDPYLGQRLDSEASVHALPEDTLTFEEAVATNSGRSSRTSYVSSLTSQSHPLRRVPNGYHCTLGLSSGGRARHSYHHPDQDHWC
T5 sequence (Q02410 whole entry): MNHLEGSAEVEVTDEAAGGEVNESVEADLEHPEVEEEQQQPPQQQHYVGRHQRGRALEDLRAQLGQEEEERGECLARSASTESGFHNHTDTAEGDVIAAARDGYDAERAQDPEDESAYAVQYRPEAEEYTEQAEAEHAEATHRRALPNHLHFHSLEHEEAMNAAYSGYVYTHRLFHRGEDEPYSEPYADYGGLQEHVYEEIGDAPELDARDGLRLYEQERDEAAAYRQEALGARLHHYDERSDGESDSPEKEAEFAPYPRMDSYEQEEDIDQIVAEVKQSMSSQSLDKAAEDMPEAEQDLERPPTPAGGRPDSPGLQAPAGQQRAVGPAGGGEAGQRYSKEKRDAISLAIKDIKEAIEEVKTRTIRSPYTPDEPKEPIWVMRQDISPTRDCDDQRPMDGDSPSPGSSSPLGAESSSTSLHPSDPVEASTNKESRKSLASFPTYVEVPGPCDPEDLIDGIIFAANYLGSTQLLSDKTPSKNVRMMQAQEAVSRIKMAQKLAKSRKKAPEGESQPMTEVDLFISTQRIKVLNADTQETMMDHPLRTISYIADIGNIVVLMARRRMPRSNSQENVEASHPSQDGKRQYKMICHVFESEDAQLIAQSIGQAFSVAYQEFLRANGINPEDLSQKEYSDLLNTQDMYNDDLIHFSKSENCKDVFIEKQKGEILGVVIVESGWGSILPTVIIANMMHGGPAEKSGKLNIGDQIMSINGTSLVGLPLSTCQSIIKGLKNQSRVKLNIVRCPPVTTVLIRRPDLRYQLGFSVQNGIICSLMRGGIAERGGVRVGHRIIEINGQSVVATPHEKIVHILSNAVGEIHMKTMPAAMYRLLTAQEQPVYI

[11] = molecular target: Ion channel NompC (Danio rerio, UniProt Q7T1G6); experiment: Dose response cell-based high-throughput screening assay for agonists of the transient receptor potential channel N1 (TRPN1). [Related pubchem assays (depositor defined):AID1424, AID1448]; assay type: functional
[12] = molecular target: T5, Voltage-gated N-type calcium channel alpha-1B subunit/Amyloid beta A4 precursor protein-binding family A member 1; assay type: protein assay; remark: listed apart in the source
[13] = Trypanosoma cruzi growth suppression in host cells – NIH3T3 host cells, beta-gal luminescence, confirmation (AID 2044); assay type: functional, cell-based;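 also: intracellular parasites grown in NIH/3T3 mouse fibroblasts as host cells; luminescent beta-galactosidase reporter signal from transgenic T. cruzi replicating inside host cells; inhibitors lower the luminescence signal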
[14] = molecular target: T6, Mucolipin-3 (Homo sapiens, UniProt Q8TDD5); experiment: Fluorescence counterscreen assay for […] agonists: dose response cell-based high-throughput screening assay to identify agonists of the transient receptor potential channel ML3 (TRPML3). [Related pubchem assays: 1424, 1448 ]; assay type: functional
T6 sequence (Q8TDD5 whole entry): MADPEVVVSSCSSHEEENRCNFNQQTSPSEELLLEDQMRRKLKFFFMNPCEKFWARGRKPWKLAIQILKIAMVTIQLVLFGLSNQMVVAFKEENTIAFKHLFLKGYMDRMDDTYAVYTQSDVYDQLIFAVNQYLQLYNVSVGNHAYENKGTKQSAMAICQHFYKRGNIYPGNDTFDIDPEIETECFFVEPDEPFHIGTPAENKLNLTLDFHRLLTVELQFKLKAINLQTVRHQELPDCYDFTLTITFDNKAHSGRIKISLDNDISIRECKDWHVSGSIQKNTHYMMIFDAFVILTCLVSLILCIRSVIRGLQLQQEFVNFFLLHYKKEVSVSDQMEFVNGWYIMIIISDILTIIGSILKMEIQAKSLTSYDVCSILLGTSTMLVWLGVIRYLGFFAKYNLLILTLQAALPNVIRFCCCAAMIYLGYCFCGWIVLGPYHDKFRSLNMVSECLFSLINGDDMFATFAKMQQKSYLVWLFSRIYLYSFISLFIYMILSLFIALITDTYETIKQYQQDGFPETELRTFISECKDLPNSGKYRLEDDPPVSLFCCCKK

[15] = NIH3T3 cell viability loss – ATP luminescence, mouse fibroblasts, counter-screen, dose response (AID 2010); assay type: functional, cell-based;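 also: cells exposed to compound for about 90 hours before reading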
[16] = molecular target: DNA dC->dU-editing enzyme APOBEC-3A (Homo sapiens, UniProt P31941); experiment: A3A deaminase inhibition for selectivity – biochemical, dose response (AID 504722); assay type: functional
Sequence of DNA dC->dU-editing enzyme APOBEC-3A (P31941 whole entry): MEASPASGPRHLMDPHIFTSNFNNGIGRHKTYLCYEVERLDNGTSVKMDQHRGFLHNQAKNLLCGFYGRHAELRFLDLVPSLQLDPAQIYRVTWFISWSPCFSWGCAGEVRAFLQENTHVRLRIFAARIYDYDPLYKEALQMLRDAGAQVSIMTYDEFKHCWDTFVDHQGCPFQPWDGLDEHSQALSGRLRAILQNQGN

[17] = molecular target: DNA dC->dU-editing enzyme APOBEC-3G (Homo sapiens, UniProt Q9HC16); experiment: Dose Response confirmation of small molecule APOBEC3G DNA Deaminase Inhibitors via a fluorescence-based single-stranded DNA deaminase assay. [Related pubchem assays (depositor defined):AID493012, AID493028]; assay type: functional
Sequence of DNA dC->dU-editing enzyme APOBEC-3G (Q9HC16 whole entry): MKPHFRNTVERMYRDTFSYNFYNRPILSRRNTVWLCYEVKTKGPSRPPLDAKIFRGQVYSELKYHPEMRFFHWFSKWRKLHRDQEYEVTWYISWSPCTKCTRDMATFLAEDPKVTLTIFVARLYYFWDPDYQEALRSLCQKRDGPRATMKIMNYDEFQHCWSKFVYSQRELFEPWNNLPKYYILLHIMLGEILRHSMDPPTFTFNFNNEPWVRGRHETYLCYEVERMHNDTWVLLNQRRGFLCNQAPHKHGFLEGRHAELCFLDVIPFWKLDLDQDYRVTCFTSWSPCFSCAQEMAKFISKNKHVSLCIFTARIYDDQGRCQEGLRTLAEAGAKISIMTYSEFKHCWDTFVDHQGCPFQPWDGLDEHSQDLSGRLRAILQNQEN

AC50 [1]: 0.676 µM (active)
Structure (SMILES): c1cncc(-c2csc(-c3cccnc3)n2)c1

Structure (SMILES): O=S(=O)(Nc1cc(Sc2cccc3cccnc23)c(O)c2ccccc12)c1ccc(F)cc1
EC50 [2]: > 300 µM (not active)
EC50 [3]: 40.1 µM (active)
IC50 [4]: > 80 µM (inactive)
AC50 [5]: 1.21 µM (active)

Structure (SMILES): Cc1c(N=C2C=C(Br)C(=O)C(Br)=C2)c(=O)n(-c2ccccc2)n1C
IC50 [6]: 27 µM (active)
IC50 [7]: > 50 µM (not active)
IC50 [4]: 58.4 µM (inactive)
IC50 [8]: 82.5 µM (active)
IC50 [9]: 52.2 µM (active)

AC50 [1]: 6.97 µM (active)
Structure (SMILES): c1cncc(-c2ccc3[nH]ccc3c2)c1

Structure (SMILES): Cc1cc(C)c2c(=O)n(CC(=O)Nc3cccc(Cl)c3C)sc2n1
IC50 [10]: 17.8 µM (active)
IC50 [6]: 9.03 µM (active)
EC50 [11]: > 29.9 µM (inactive)
IC50 [12]: > 50 µM (inactive)
EC50 [13]: 1.65 µM (active)
EC50 [14]: > 29.9 µM (not active)
EC50 [15]: 7.73 µM (active)
IC50 [16]: > 100 µM (inactive)
IC50 [4]: 46.5 µM (inactive)
IC50 [17]: 6.83 µM (active)
